# From PubChem BioAssay (NCI)
# Several values for one entry are separate records, joined by “and”; a condition that tells them apart may be missing. Equal entries are not always repeated.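 Grown in 96-well plates, cells were treated for 48 hours with each compound at five concentrations. Insufficient inhibition: endpoint recorded as highest concentration tested. GI50 = concentration required for 50% inhibition of growth. TGI: total growth inhibition.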
# What was measured:
# Test in all cases: NCI-60 cell line screen, 48 h
# [1] = test system: SNB-19 CNS
# [2] = test system: NCI-H522 lung
# [3] = test system: 786-0 renal
# [4] = test system: MDA-MB-435
# [5] = test system: SF-268 CNS
# [6] = test system: MCF7 breast
# [7] = test system: HT29 colon
# [8] = test system: HCC-2998 colon
# [9] = test system: BT-549 breast
# [10] = test system: T-47D breast
# [11] = test system: COLO 205 colon
# [12] = test system: RPMI-8226 leukemia
# [13] = test system: OVCAR-3 ovarian
# [14] = test system: HOP-92 NSCLC
# [15] = test system: U251 CNS
# [16] = test system: M14 melanoma
# [17] = test system: NCI/ADR-RES ovarian
# [18] = test system: SN12C renal
# [19] = test system: CAKI-1 renal
# [20] = test system: UO-31 renal
# [21] = test system: OVCAR-5 ovarian
# [22] = test system: UACC-257 melanoma
# [23] = test system: KM12 colon
# [24] = test system: UACC-62 melanoma
# [25] = test system: NCI-H226 lung
# [26] = test system: MALME-3M melanoma
# [27] = test system: OVCAR-4 ovarian
# [28] = test system: SR leukemia
# [29] = test system: HCT-15 colon
# [30] = test system: HCT-116 colon
# [31] = test system: K-562 leukemia
# [32] = test system: SF-295 CNS
# [33] = test system: HS 578T breast
# [34] = test system: SNB-75 CNS
# [35] = test system: SK-MEL-2 melanoma
# [36] = test system: MOLT-4 leukemia
# [37] = test system: SK-OV-3 ovarian
# [38] = test system: A549 NSCLC
# [39] = test system: NCI-H460 lung
# [40] = test system: TK-10 renal
# [41] = test system: OVCAR-8 ovarian
# [42] = test system: NCI-H23 lung
# [43] = test system: HL-60(TB) leukemia
# [44] = test system: A498 renal
# [45] = test system: PC-3 prostate
# [46] = test system: SW-620 colon
# [47] = test system: DU-145 prostate
# [48] = test system: ACHN renal
# [49] = test system: HOP-62 NSCLC
# [50] = test system: IGROV1 ovarian
# [51] = test system: SF-539 CNS
# [52] = test system: SK-MEL-28 melanoma
# [53] = test system: LOX IMVI melanoma
# [54] = test system: MDA-MB-231 breast
# [55] = test system: RXF 393 renal
# [56] = test system: SK-MEL-5 melanoma
# [57] = test system: CCRF-CEM leukemia
smiles,measurement,setting,value
CN1C[C@@H]2Cn3c(c(C4=C(c5cn(C)c6ccccc56)C(=O)NC4=O)c4ccccc43)C[C@H]2C1,GI50,[1],6.44 µM and 5.87 µM
same,TGI,[1],18.4 µM and 16.4 µM
same,GI50,[2],4.16 µM and 3.63 µM
same,TGI,[2],8.15 µM and 7.81 µM
same,GI50,[3],4.75 µM and 4.57 µM
same,TGI,[3],9.33 µM and 8.9 µM
same,GI50,[4],3.43 µM and 3.16 µM
same,TGI,[4],7.09 µM
same,GI50,[5],4.8 µM and 4.93 µM
same,TGI,[5],9.46 µM and 9.97 µM
same,GI50,[6],3.6 µM and 3.15 µM
same,TGI,[6],8.7 µM and 9.66 µM
same,GI50,[7],3.87 µM and 3.22 µM
same,TGI,[7],10.8 µM and 11.6 µM
same,GI50,[8],4.59 µM and 4.4 µM
same,TGI,[8],8.71 µM and 9.65 µM
same,GI50,[9],4.51 µM and 4.36 µM
same,TGI,[9],8.4 µM and 8.59 µM
same,GI50,[10],4.26 µM and 5.32 µM
same,TGI,[10],9.46 µM and 11.5 µM
same,GI50,[11],3.09 µM and 1.96 µM
same,TGI,[11],6.7 µM and 5.72 µM
same,GI50,[12],5.56 µM and 4.7 µM
same,TGI,[12],11.9 µM and 10.3 µM
same,GI50,[13],4.42 µM and 4.64 µM
same,TGI,[13],9.42 µM and 10.9 µM
same,GI50,[14],6.76 µM
same,TGI,[14],12.7 µM
same,GI50,[15],3.59 µM and 2.83 µM
same,TGI,[15],7.27 µM and 6.37 µM
same,GI50,[16],4.07 µM and 3.96 µM
same,TGI,[16],8.24 µM and 7.83 µM
same,GI50,[17],6.46 µM and 8.53 µM
same,TGI,[17],16.8 µM and 25 µM
same,GI50,[18],3.45 µM and 3.3 µM
same,TGI,[18],8.8 µM and 8.65 µM
same,GI50,[19],3.43 µM and 4.29 µM
same,TGI,[19],8.28 µM and 9.96 µM
same,GI50,[20],2.01 µM and 2.98 µM
same,TGI,[20],5.38 µM and 6.66 µM
same,GI50,[21],6.86 µM and 5.42 µM
same,TGI,[21],23.1 µM and 17.2 µM
same,GI50,[22],4.03 µM and 3.93 µM
same,TGI,[22],8.01 µM and 7.6 µM
same,GI50,[23],4.49 µM and 3.67 µM
same,TGI,[23],9.19 µM and 7.87 µM
same,GI50,[24],3.89 µM and 3.61 µM
same,TGI,[24],7.64 µM and 7.19 µM
same,GI50,[25],4.53 µM and 4.06 µM
same,TGI,[25],15 µM and 10.9 µM
same,GI50,[26],3.78 µM and 3.89 µM
same,TGI,[26],7.36 µM and 8.03 µM
same,GI50,[27],3.36 µM and 3.48 µM
same,TGI,[27],9.12 µM and 8.91 µM
same,GI50,[28],4.89 µM and 1.77 µM
same,TGI,[28],14.4 µM and 7.38 µM
same,GI50,[29],4.41 µM and 3.58 µM
same,TGI,[29],13.1 µM and 10.9 µM
same,GI50,[30],4.2 µM and 3.02 µM
same,TGI,[30],9.66 µM and 8.22 µM
same,GI50,[31],4.9 µM and 2.37 µM
same,TGI,[31],10.4 µM and 6.88 µM
same,GI50,[32],3.42 µM and 3.76 µM
same,TGI,[32],7.15 µM and 8.89 µM
same,GI50,[33],2.71 µM and 2.63 µM
same,TGI,[33],8.34 µM and 9.51 µM
same,GI50,[34],0.441 µM and 0.259 µM
same,TGI,[34],3.79 µM and 3.6 µM
same,GI50,[35],4.52 µM and 3.91 µM
same,TGI,[35],8.92 µM and 7.75 µM
same,GI50,[36],5.46 µM and 3.49 µM
same,TGI,[36],16.8 µM and 11.9 µM
same,GI50,[37],4.56 µM and 4.06 µM
same,TGI,[37],11.8 µM and 11.9 µM
same,GI50,[38],4.4 µM and 3.51 µM
same,TGI,[38],10.5 µM and 8.75 µM
same,GI50,[39],4.61 µM and 4.35 µM
same,TGI,[39],8.9 µM
same,GI50,[40],3.5 µM and 3.74 µM
same,TGI,[40],7.6 µM and 8.41 µM
same,GI50,[41],4.74 µM and 4.35 µM
same,TGI,[41],11.4 µM and 11.1 µM
same,GI50,[42],4.96 µM and 6.11 µM
same,TGI,[42],10.7 µM and 15.3 µM
same,GI50,[43],5.48 µM and 3.63 µM
same,TGI,[43],10.5 µM and 8.53 µM
same,GI50,[44],4.76 µM and 4.45 µM
same,TGI,[44],8.59 µM and 8.23 µM
same,GI50,[45],3.91 µM and 2.81 µM
same,TGI,[45],11 µM and 7.08 µM
same,GI50,[46],4.34 µM and 3.22 µM
same,TGI,[46],9.21 µM and 8.94 µM
same,GI50,[47],6.27 µM and 5.46 µM
same,TGI,[47],16.3 µM and 14.7 µM
same,GI50,[48],4.16 µM and 3.51 µM
same,TGI,[48],12.6 µM and 8.98 µM
same,GI50,[49],4.29 µM and 4.01 µM
same,TGI,[49],9.32 µM and 8.42 µM
same,GI50,[50],5.73 µM and 6.57 µM
same,TGI,[50],11 µM and 15 µM
same,GI50,[51],3.97 µM and 3.57 µM
same,TGI,[51],7.83 µM and 7.12 µM
same,GI50,[52],4.34 µM and 4.35 µM
same,TGI,[52],8.62 µM and 8.47 µM
same,GI50,[53],4.16 µM and 3.96 µM
same,TGI,[53],7.9 µM and 7.86 µM
same,GI50,[54],4.37 µM and 4.1 µM
same,TGI,[54],8.85 µM and 9.22 µM
same,GI50,[55],3.53 µM and 3.17 µM
same,TGI,[55],7.19 µM and 6.68 µM
same,GI50,[56],4.17 µM and 3.68 µM
same,TGI,[56],8.01 µM and 7.28 µM
same,GI50,[57],2.13 µM and 5.69 µM
same,TGI,[57],11.7 µM and 17.6 µM
